From ChEMBL document CHEMBL5346933, “Design and synthesis of novel arylurea derivatives of aryloxy(1-phenylpropyl) alicyclic diamines with antimicrobial activity against multidrug-resistant Gram-positive bacteria” (Eur J Med Chem, 2023)
Converted amounts (≈) assume the structure as drawn. The source made the active and inactive calls. The calls are words filed in the database; no cut-off is given here.

Experiments:
[1] = test system: Staphylococcus epidermidis; experiment: Antibacterial activity against linezolid-resistant Staphylococcus epidermidis NIL 4399/19 assessed as inhibition of bacterial growth incubated for 18 hrs by broth microdilution method; type: functional
Enterococcus faecium [2] = experiment: Ratio of MBC to MIC for vancomycin-resistant Enterococcus faecium clinical strain; type: functional
Staphylococcus aureus [3] = experiment: Bactericidal activity against vancomycin-intermediate Staphylococcus aureus ATCC 700699 assessed as log reduction of bacterial colony forming units at 4 times MIC incubated for 20 hrs in broth followed by culturing on agar plate for 24 hrs by time-killing assay; type: functional; conditions: time 44 hrs
[4] = Intrinsic clearance in rat liver microsomes at 0.4 mg/ml preincubated for 10 mins followed by NADPH-regenerating system addition for 60 mins and measured per mg of protein by UPLC-MS analysis; type: ADME, Microsome; conditions: time 70 min, read-out: CLH
Streptococcus pneumoniae [5] = experiment: Antibacterial activity against Oxacillin-resistant Streptococcus pneumoniae O/19/4541 assessed as inhibition of bacterial growth incubated for 18 hrs by broth microdilution method; type: functional
Cell membrane [6] = experiment: Induction of cell membrane depolarization in Staphylococcus aureus Newman assessed as bacterial cells with depolarized membrane potential at 4 times MIC incubated for 25 to 30 mins by DiOC2(3) probe based flow cytometry (reference value: 1.6%); type: subcellular; conditions: time 25-30 min
[7] = test system: Staphylococcus epidermidis; experiment: Ratio of MBC to MIC for biofilm producer Staphylococcus epidermidis ATCC 35984; type: functional
Enterococcus faecalis [8] = experiment: Antibacterial activity against Enterococcus faecalis ATCC 29212 assessed as inhibition of bacterial growth incubated for 18 hrs by broth microdilution method; type: functional
Staphylococcus aureus [9] = experiment: Antibacterial activity against vancomycin-intermediate Staphylococcus aureus ATCC 700699 assessed as inhibition of bacterial growth measured for 18 hrs by OD600 based analysis; type: functional, organism-based
[10] = Cytotoxicity against human MRC5 cells assessed as reduction in cell viability incubated for 24 hrs by MTT assay; type: toxicity, cell-based
Staphylococcus aureus [11] = experiment: Antibacterial activity against vancomycin-intermediate Staphylococcus aureus ATCC 700699 assessed as inhibition of bacterial growth incubated for 18 hrs by broth microdilution method; type: functional
Cell membrane [12] = experiment: Induction of cell membrane depolarization in vancomycin-resistant Enterococcus faecium clinical strain assessed as bacterial cells with polarized membrane potential at 2XMIC incubated for 25 to 30 mins by DiOC2(3) probe based flow cytometry (reference value: 96.8%); type: subcellular; conditions: time 25-30 min
Staphylococcus aureus [13] = experiment: Ratio of MBC to MIC for methicillin-susceptible Staphylococcus aureus ATCC 25923; type: functional
[14] = Cytotoxicity against human BJ cells assessed as reduction in cell viability incubated for 24 hrs by MTT assay; type: toxicity, cell-based
[15] = Metabolic stability in rat liver microsomes assessed as parent compound remaining at 0.4 mg/ml preincubated for 10 mins followed by NADPH-regenerating system addition for 60 mins by UPLC-MS analysis; type: ADME, Microsome; conditions: time 70 min, read-out: Stability
Cell membrane [16] = experiment: Induction of cell membrane depolarization in methicillin-resistant Staphylococcus aureus 19449 assessed as bacterial cells with polarized membrane potential at 2XMIC incubated for 25 to 30 mins by DiOC2(3) probe based flow cytometry (reference value: 98.8%); type: subcellular; conditions: time 25-30 min
Cell membrane [17] = experiment: Induction of cell membrane depolarization in vancomycin-resistant Enterococcus faecium clinical strain assessed as bacterial cells with depolarized membrane potential at 4 times MIC incubated for 25 to 30 mins by DiOC2(3) probe based flow cytometry (reference value: 0.8%); type: subcellular; conditions: time 25-30 min
[18] = test system: Staphylococcus epidermidis; experiment: Antibacterial activity against methicillin-susceptible Staphylococcus epidermidis ATCC 12228 assessed as inhibition of bacterial growth incubated for 18 hrs by broth microdilution method; type: functional
Staphylococcus aureus [19] = experiment: Antibacterial activity against methicillin-susceptible Staphylococcus aureus ATCC 25923 assessed as inhibition of bacterial growth incubated for 18 hrs by broth microdilution method; type: functional
Staphylococcus aureus [20] = experiment: Bactericidal activity against methicillin-susceptible Staphylococcus aureus ATCC 25923 assessed as reduction in colony forming units incubated for 18 hrs in broth followed by culturing on agar plate for 24 hrs; type: functional; conditions: time 42 hrs, read-out: MBC99.9
Cell membrane [21] = experiment: Induction of cell membrane depolarization in methicillin-resistant Staphylococcus aureus 19449 assessed as bacterial cells with depolarized membrane potential at 4 times MIC incubated for 25 to 30 mins by DiOC2(3) probe based flow cytometry (reference value: 0.7%); type: subcellular; conditions: time 25-30 min
Cell membrane [22] = experiment: Induction of cell membrane depolarization in Staphylococcus aureus Newman assessed as bacterial cells with polarized membrane potential at MIC incubated for 25 to 30 mins by DiOC2(3) probe based flow cytometry (reference value: 94.3%); type: subcellular; conditions: time 25-30 min
Cell membrane [23] = experiment: Induction of cell membrane depolarization in methicillin-resistant Staphylococcus aureus 19449 assessed as bacterial cells with polarized membrane potential at 4 times MIC incubated for 25 to 30 mins by DiOC2(3) probe based flow cytometry (reference value: 98.8%); type: subcellular; conditions: time 25-30 min
Streptococcus pneumoniae [24] = experiment: Antibacterial activity against macrolides-lincosamides and streptogramins B-resistant Streptococcus pneumoniae O/19/4199 assessed as inhibition of bacterial growth incubated for 18 hrs by broth microdilution method; type: functional
Cell membrane [25] = experiment: Induction of cell membrane depolarization in Staphylococcus aureus Newman assessed as bacterial cells with polarized membrane potential at 2XMIC incubated for 25 to 30 mins by DiOC2(3) probe based flow cytometry (reference value: 94.3%); type: subcellular; conditions: time 25-30 min
Staphylococcus aureus [26] = experiment: Antibacterial activity against biofilm producer Staphylococcus aureus RN450 assessed as inhibition of bacterial growth incubated for 18 hrs by broth microdilution method; type: functional
[27] = test system: Staphylococcus epidermidis; experiment: Ratio of MBC to MIC for methicillin-susceptible Staphylococcus epidermidis ATCC 12228; type: functional
[28] = test system: Staphylococcus epidermidis; experiment: Ratio of MBC to MIC for linezolid-resistant Staphylococcus epidermidis NIL 4399/19; type: functional
Klebsiella pneumoniae = experiment: Antibacterial activity against Klebsiella pneumoniae ATCC 700603 assessed as inhibition of bacterial growth incubated for 18 hrs by broth microdilution method; type: functional
Enterococcus faecalis [29] = experiment: Ratio of MBC to MIC for Enterococcus faecalis ATCC 29212; type: functional
Enterococcus faecium [30] = experiment: Antibacterial activity against vancomycin-resistant Enterococcus faecium assessed as inhibition of bacterial growth measured for 18 hrs by OD600 based analysis; type: functional, organism-based
Cell membrane [31] = experiment: Induction of cell membrane depolarization in methicillin-resistant Staphylococcus aureus 19449 assessed as bacterial cells with polarized membrane potential at MIC incubated for 25 to 30 mins by DiOC2(3) probe based flow cytometry (reference value: 98.8%); type: subcellular; conditions: time 25-30 min
Cell membrane [32] = experiment: Induction of cell membrane depolarization in vancomycin-resistant Enterococcus faecium clinical strain assessed as ratio of red to green fluorescence intensity at MIC incubated for 25 to 30 mins by DiOC2(3) probe based flow cytometry; type: subcellular; conditions: time 25-30 min
Escherichia coli = experiment: Antibacterial activity against Escherichia coli ATCC 25922 assessed as inhibition of bacterial growth incubated for 18 hrs by broth microdilution method; type: functional
Cell membrane [33] = experiment: Induction of cell membrane depolarization in Staphylococcus aureus Newman assessed as bacterial cells with polarized membrane potential at 4 times MIC incubated for 25 to 30 mins by DiOC2(3) probe based flow cytometry (reference value: 94.3%); type: subcellular; conditions: time 25-30 min
[34] = Cytotoxicity against human BJ cells assessed as cell viability at 25 ug/ml incubated for 24 hrs by MTT assay; type: toxicity, cell-based; conditions: at 25 µg/mL, read-out: Activity

## O=C(Nc1cccc(Cl)c1)NC1CCN(CCC(Oc2cccc(C(F)(F)F)c2)c2ccccc2)CC1 (racemic)
[1]
  MIC: 3.12 µg/mL (≈ 5.87 µM)
Enterococcus faecium [2]
  Ratio: 4
Staphylococcus aureus [3]
  Activity: >=3 log10CFU/ml
[4]
  microsomal CLint: 8.94 µL/min/mg
Streptococcus pneumoniae [5]
  MIC: 12.5 µg/mL (≈ 23.5 µM)
Cell membrane [6]
  Activity: 89.8%
[7]
  Ratio: 4
Enterococcus faecalis [8]
  MIC: 1.56 µg/mL (≈ 2.93 µM)
Staphylococcus aureus [9]
  Activity: Active
[10]
  IC50 at 24 h: 12.5 µg/mL (≈ 23.5 µM)
Staphylococcus aureus [11]
  MIC: 3.12 µg/mL (≈ 5.87 µM)
Cell membrane [12]
  Activity: 0.3%
Staphylococcus aureus [13]
  Ratio: 4
[14]
  IC50 at 24 h: > 25 µg/mL
[15]
  remaining at 1 h: 95%
Cell membrane [16]
  Activity: 0.1%
Cell membrane [17]
  Activity: 89.3%
[18]
  MIC: 3.12 µg/mL (≈ 5.87 µM)
Staphylococcus aureus [19]
  MIC: 3.12 µg/mL (≈ 5.87 µM)
Staphylococcus aureus [20]
  MBC: 12.5 µg/mL (≈ 23.5 µM)
Cell membrane [21]
  Activity: 96.4%
Cell membrane [22]
  Activity: 0.6%
Cell membrane [23]
  Activity: 0%
Streptococcus pneumoniae [24]
  MIC: 6.25 µg/mL (≈ 11.7 µM)
Cell membrane [25]
  Activity: 0.1%
Staphylococcus aureus [26]
  MIC: 1.56 µg/mL (≈ 2.93 µM)
[27]
  Ratio: 1
[28]
  Ratio: 2
Klebsiella pneumoniae
  MIC: > 12.5 µg/mL
Enterococcus faecalis [29]
  Ratio: 4
Enterococcus faecium [30]
  Activity: Active
Cell membrane [31]
  Activity: 6%
Cell membrane [32]
  Ratio: 0.2
Escherichia coli
  MIC: > 12.5 µg/mL
Cell membrane [33]
  Activity: 0%
[34]
  viability at 24 h, 25 ug/ml: 97%
